Test results as given in patent US10016382B2, “Method for decreasing skeletal muscle damage and/or oxidative stress in mammals” (LONZA INC., priority 2014, dated 2018).
Several values for one entry are separate records, joined by “and”; a condition that tells them apart may be missing. Equal values may be shown once.

Columns and labels:
Type in all cases: in vivo, dog
[1] = test system: total antioxidant capacity (TAC); assay: Serum total antioxidant capacity (TAC), Example 1; settings: for Change in TAC, post-run minus pre-run: following 15 mile long run at 13 wk, mean ± SEM
Description: (§1) Blood Analysis: Serum samples were taken at three different times from each dog during the 90 day period. The blood samples were collected as follows: 1.) just prior to scanning each dog for body composition at the beginning of the study, 2.) prior to the long run on the 13th week, and 3.) following the long run on the 13th week. The serum samples were analyzed for Phosphocreatine Kinase and Canine Myoglobin to determine the amount of muscle protein leakage that occurred following the long run and TBARS and Total Antioxidant Capacity (TAC) were determined to evaluate the antioxidant status of each of the test dogs during the exercise program. The final blood sample was taken 24 hr after the long run to obtain maximum protein leakage based on previous similar types of exercise research with human athletes. Biomarkers and Assay Methods: Blood was drawn from each dog using a serum separator tube at three different times during the 90 day period: 1.) just prior to scanning each dog for body composition at the beginning of the study, 2.) prior to the long run on the 13th week, and 3.) following the long run on the 13th week. The final blood sample was taken 24 hr after the long run to obtain maximum protein leakage based on previous similar types of exercise research with human athletes. Each time after the blood was drawn it was allowed to clot before being centrifuged for 15 min at 2000 g at 4° C. Serum was aliquoted into 1.5 mL microcentrifuge tubes and stored at −80° C. until assays were ran following the end of the study. Creatine kinase (CK) and canine myoglobin were measured to determine the amount of muscle protein leakage that occurred following the long run. Thiobarbituric acid reactive substances (TBARS) and total antioxidant capacity (TAC) were measured to evaluate the antioxidant status of each of the test dogs during the exercise program. Serum samples were analyzed for total antioxidant capacity (TAC) and thiobarbituric acid reactive substances (TBARS) using commercially available colorimetric kits supplied by Cayman Chemical Company (Ann Arbor, Mich.) per manufacturer instructions. Serum canine myoglobin levels were determined using a commercially available ELISA supplied by Innovate Research (Novi, Mich.) per manufacturer instructions. Creatine kinase activity was determined colorimetrically using a commercially available kit supplied by BioVision (San Francisco, Calif.).

Labrador Retrievers = assay: Time of final 15 mile run, Example 2 part one (14 week crossover study); settings: Ex.2 part one, 250 mg/d, 15 mile run at end of 14 week study, mean ± SEM
Description: Part One: For part one of the study, fifty-six Labrador Retrievers were divided into two equal groups of 28 (14 males, 14 females) based on gender, BW, genetics, age, excitement level, frame size, and lean body mass. The dogs were out of a minimum of 10 different bitches and at least as many sires. Prior to the start of the study, the dogs were tested for lean mass, muscle damage, and antioxidant status as described in Example 1. In addition to the low carnitine basal diet, twenty-eight of the Labs received 250 mg/day of L-carnitine (batch D23013) and 3.75 g/d of sugar, while twenty-eight of the Labs received 4 g/d of sugar. Both the L-carnitine and control performance dogs were put through a weekly running program consisting of two evenly distributed endurance runs. Groups ranging between 6 and 10 dogs were run together, including both treatments in each group. The endurance runs increased incrementally by 0.5 miles per week (5 miles/session increasing to 10 miles per session over an 11 week period). The dogs were allowed a 1 day rest between runs and a 3 day rest before a scheduled exercise distance increase. The dogs were put through maintenance runs of 5 miles twice in the 12th week and then 2 miles twice in the 13th week. All dogs had at least 4 days of rest prior to the final 15 miles run in the 14th week. Each performance dog wore the Actical activity monitor and GPS tracking collar during the last 15 mile endurance run. The final run was conducted in a manner analogous to that of Example 1. All activity was accurately and precisely calculated using the GPS tracking monitors. Immediately following the 15 mile endurance run, each dog was placed in a kennel and evaluated for recovery time in body temperature (every 15 minutes for 2 hours) and heart rate (every 2 minutes for up to 20 minutes until basal beats per minute (BPM) was reached). Body temperature and heart rate were measured as described in Example 1.

Creatine kinase (CK) = assay: Serum creatine kinase (muscle damage biomarker), Example 1; settings: for Creatine Kinase, serum, Mean / Change in Creatine Kinase Activity, post-run minus pre-run: Ex.1, 250 mg/d; for Change in Creatine Kinase Activity, post-run minus pre-run: following 15 mile long run at 13 wk, mean ± SEM
Description: as §1

C[N+](C)(C)C[C@H](O)CC(=O)[O-] [L-carnitine]
TAC Least Sq Mean ([1]; Baseline): 0.1066 mM Trolox Equiv
TAC Least Sq Mean ([1]; Baseline, F): 0.1064 mM Trolox Equiv
TAC Least Sq Mean ([1]; Baseline, M): 0.1067 mM Trolox Equiv
TAC, serum, Mean ([1]; Ex.1, 250 mg/d, Baseline, both sexes): 0.107 mM Trolox Equiv
TAC, serum, Mean ([1]; Ex.1, 250 mg/d, Baseline, females): 0.106 mM Trolox Equiv
TAC, serum, Mean ([1]; Ex.1, 250 mg/d, Baseline, males): 0.107 mM Trolox Equiv
TAC, serum, Mean ([1]; Ex.1, 250 mg/d, Post-run, both sexes): 0.087 mM Trolox Equiv
TAC, serum, Mean ([1]; Ex.1, 250 mg/d, Post-run, females): 0.069 mM Trolox Equiv
TAC, serum, Mean ([1]; Ex.1, 250 mg/d, Post-run, males): 0.102 mM Trolox Equiv
TAC, serum, Mean ([1]; Ex.1, 250 mg/d, Pre-run, both sexes): 0.118 mM Trolox Equiv
TAC, serum, Mean ([1]; Ex.1, 250 mg/d, Pre-run, females): 0.106 mM Trolox Equiv
TAC, serum, Mean ([1]; Ex.1, 250 mg/d, Pre-run, males): 0.128 mM Trolox Equiv
Effect on TAC of the test dogs ([1]; Ex.1, 250 mg/d, during the study, vs control): did not have a significant effect
Change in TAC, post-run minus pre-run ([1]; Ex.1, 250 mg/d, both sexes): −0.03 ± 0.01 n = 20 mM Trolox Equiv
Change in TAC, post-run minus pre-run ([1]; Ex.1, 250 mg/d, females): −0.04 ± 0.01 n = 9 mM Trolox Equiv
Change in TAC, post-run minus pre-run ([1]; Ex.1, 250 mg/d, males): −0.03 ± 0.01 n = 11 mM Trolox Equiv
TAC Least Sq Mean ([1]; Post-run): 0.08522 mM Trolox Equiv
TAC Least Sq Mean ([1]; Post-run, F): 0.06866 mM Trolox Equiv
TAC Least Sq Mean ([1]; Post-run, M): 0.1018 mM Trolox Equiv
TAC Least Sq Mean ([1]; Pre-run): 0.1171 mM Trolox Equiv
TAC Least Sq Mean ([1]; Pre-run, F): 0.1063 mM Trolox Equiv
TAC Least Sq Mean ([1]; Pre-run, M): 0.128 mM Trolox Equiv
TAC Least Sq Mean ([1]; Treatment * Sex, F): 0.1064 mM Trolox Equiv
TAC Least Sq Mean ([1]; Treatment * Sex, M): 0.1067 mM Trolox Equiv
TAC Least Sq Mean ([1]; Treatment level, all dogs): 0.1066 mM Trolox Equiv
Total Antioxidant capacity, mixed model Estimate, term Time[Post-run-Pre-run] * Treatment[L-carnitine] ([1]; serum, model term): −0.001428
Total Antioxidant capacity, mixed model Estimate, term Time[Post-run-Pre-run] * Treatment[L-carnitine] * Sex[F] ([1]; serum, model term): −0.001227
Total Antioxidant capacity, mixed model Estimate, term Time[Pre-run-Baseline] * Treatment[L-carnitine] ([1]; serum, model term): −0.00085
Total Antioxidant capacity, mixed model Estimate, term Time[Pre-run-Baseline] * Treatment[L-carnitine] * Sex[F] ([1]; serum, model term): 0.001958
Total Antioxidant capacity, mixed model Estimate, term Treatment[L-carnitine] ([1]; serum, model term): 0.001356
Total Antioxidant capacity, mixed model Estimate, term Treatment[L-carnitine] * Sex[F] ([1]; serum, model term): 0.001671
Final Run Time (Labrador Retrievers; Female): 73.7 ± 0.86 min
Final Run Time (Labrador Retrievers; Male): 76.11 ± 1.64 min
Final Run Time (Labrador Retrievers; both sexes): 74.90 min and 74.9 ± 0.94 min
Creatine Kinase Least Sq Mean (Creatine kinase (CK); Baseline): 24.88 mU/mL
Creatine Kinase Least Sq Mean (Creatine kinase (CK); Baseline, F): 35.85 mU/mL
Creatine Kinase Least Sq Mean (Creatine kinase (CK); Baseline, M): 13.91 mU/mL
Creatine Kinase, serum, Mean (Creatine kinase (CK); Baseline, both sexes): 22.9 mU · mL
Creatine Kinase, serum, Mean (Creatine kinase (CK); Baseline, females): 35.8 mU · mL
Creatine Kinase, serum, Mean (Creatine kinase (CK); Baseline, males): 13.9 mU · mL
Creatine Kinase, serum, Mean (Creatine kinase (CK); Post-run (24 hr after 15 mile run), both sexes): 16.1 mU · mL
Creatine Kinase, serum, Mean (Creatine kinase (CK); Post-run, females): 19.9 mU · mL
Creatine Kinase, serum, Mean (Creatine kinase (CK); Post-run, males): 12.2 mU · mL
Creatine Kinase, serum, Mean (Creatine kinase (CK); Pre-run (24 hr before 15 mile run), both sexes): 7.0 mU · mL
Creatine Kinase, serum, Mean (Creatine kinase (CK); Pre-run, females): 6.9 mU · mL
Creatine Kinase, serum, Mean (Creatine kinase (CK); Pre-run, males): 7.0 mU · mL
Change in Creatine Kinase Activity, post-run minus pre-run (Creatine kinase (CK); both sexes, text: units): 9.3 and 9.3 ± 1.86 n = 18
Change in Creatine Kinase Activity, post-run minus pre-run (Creatine kinase (CK); females): 13.06 ± 2.06 n = 9
Change in Creatine Kinase Activity, post-run minus pre-run (Creatine kinase (CK); males): 5.54 and 5.54 ± 2.63 n = 9
Creatine Kinase Least Sq Mean (Creatine kinase (CK); Post-run): 16.08 mU/mL
Creatine Kinase Least Sq Mean (Creatine kinase (CK); Post-run, F): 19.94 mU/mL
Creatine Kinase Least Sq Mean (Creatine kinase (CK); Post-run, M): 12.21 mU/mL
Creatine Kinase Least Sq Mean (Creatine kinase (CK); Pre-run): 6.96 mU/mL
Creatine Kinase Least Sq Mean (Creatine kinase (CK); Pre-run, F): 6.888 mU/mL
Creatine Kinase Least Sq Mean (Creatine kinase (CK); Pre-run, M): 7.032 mU/mL
Creatine Kinase Least Sq Mean (Creatine kinase (CK); Treatment * Sex, F): 35.85 mU/mL
Creatine Kinase Least Sq Mean (Creatine kinase (CK); Treatment * Sex, M): 13.91 mU/mL
Creatine Kinase Least Sq Mean (Creatine kinase (CK); Treatment level, all dogs): 24.88 mU/mL
Creatine Kinase, mixed model Estimate, term Time[Post-run-Pre-run] * Treatment[L-carnitine] (Creatine kinase (CK); serum, model term): −2.544 mU/mL
Creatine Kinase, mixed model Estimate, term Time[Post-run-Pre-run] * Treatment[L-carnitine] * Sex[F] (Creatine kinase (CK); serum, model term): 1.335 mU/mL
Creatine Kinase, mixed model Estimate, term Time[Pre-run-Baseline] * Treatment[L-carnitine] (Creatine kinase (CK); serum, model term): −3.029 mU/mL
Creatine Kinase, mixed model Estimate, term Time[Pre-run-Baseline] * Treatment[L-carnitine] * Sex[F] (Creatine kinase (CK); serum, model term): −5.661 mU/mL
Creatine Kinase, mixed model Estimate, term Treatment[L-carnitine] (Creatine kinase (CK); serum, model term): 3.121 mU/mL
Creatine Kinase, mixed model Estimate, term Treatment[L-carnitine] * Sex[F] (Creatine kinase (CK); serum, model term): 5.935 mU/mL
